Test results as given in US20240284907A1, “NOVEL DERIVATIVES OF NON-CODED AMINO ACIDS AND THEIR USE AS HERBICIDES” (FortePhest LTD., priority 2021, published 2024).

Key:
Type in all cases: in vivo
[1] = system: Seeds of Lettuce R. (Super-Jericho); assay: Filter paper bioassay with lettuce seeds: germination and early plant development, Minimal Effective Concentration (MEC); details: lettuce seeds on filter paper, 0 to 1 mmol/l, visually assessed after 6 days
Outline: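 Non-sterilized Super-Jericho lettuce seeds, 10 per dish, on filter paper wetted with aqueous test solution at 0–1 mmol/l. Kept 48 h dark, then 4 days at 6/18 dark/light. MEC is the lowest concentration causing no germination or radicle/shoot malformation by visual scoring at day 6; at least two repeats.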

[2] = system: Romaine lettuce (Lactuca sativa L.) plants; assay: Post-emergence herbicidal activity on potted Romaine lettuce plants (soil or foliar application); details: lettuce at 2 to 3 leaves, two weeks after treatment
Outline: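 Potted lettuce at the 2-3 leaf stage received compound in 0.1% aqueous Silwet, up to 0.0001%, applied to soil (1 ml/pot) or sprayed on foliage (0.1 ml/pot), 20 plants per concentration. Visual scoring and aboveground wet weight after two weeks; growth inhibition from median weights versus control.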

Lentils = assay: Herbicidal effect on potted weeds, plant development score; details: soil application 1 mg/pot, scale 0 (dead plants) to 5 (healthy, as Control)
Protocol: (§1) Weed seeds were sawn in 0.3-liter pots, containing medium-heavy clay-loam soil from organic fields (55% clay, 23% silt, 20% sand, 2% organic matter, pH 7.1). The experiment was conducted in a completely randomized design. Each treatment was replicated 3 times (3 pots). Each compound was typically tested on crops (Corn, Wheat, Soy, Cotton, Oat, Chickpea) and weeds (Amaranth, Chenopodium, Lentils, Sinapis, Silybum).
(§2) The herbicides were applied at dose from 0 (control) to 5 mg/pot. The treatment was performed at the day of sawn (pre-emergence treatment). Then the pots were transferred to a mesh house 24 hours after herbicide application and were sprinkler irrigated to field capacity of the soil. Alternatively, the herbicides were applied on grown plants at stage 2-3 true leaves (post-emergence treatment).
(§3) The plants were grown in the mesh house during the entire experiment. Plant development at 6, 12, 19, 26 and 32 days after application (DAA) were evaluated on a scale of 0 to 5, in which 0 represents dead plants and 5 represents healthy plants similar or not different from Control. In the context of the invention, the herbicidal effect was expressed as a score calculated as an average of assessments of plants vigor, height, and leaf color.

Amaranth = assay: as above; details: soil application 1 mg/pot, scale 0 (dead plants) to 5 (healthy, as Control)
Protocol: as §1, §2, §3

Silybum = assay: as above; details: soil application 1 mg/pot, scale 0 (dead plants) to 5 (healthy, as Control)
Protocol: as §1, §2, §3

Chenopodium = assay: as above; details: soil application 1 mg/pot, scale 0 (dead plants) to 5 (healthy, as Control)
Protocol: as §1, §2, §3

Sinapis = assay: as above; details: soil application 1 mg/pot, scale 0 (dead plants) to 5 (healthy, as Control)
Protocol: as §1, §2, §3

[3] = system: Seeds of Lettuce R. (Super-Jericho); assay: Filter paper bioassay with lettuce seeds: germination, Fully Effective Concentration (FEC); details: lowest concentration mostly preventing lettuce seed germination, assessed after 6 days
Text: Materials: Seeds of Lettuce R. (Super-Jericho, non-sterilized) were obtained from Ben Shahar Moshe Ltd., 99% purity. The test compounds listed in the Table 2 below were synthetized de novo or purchased from different vendors.
Filter Paper Bioassays with Lettuce seeds: The protocol is following Bertin et al. 2009 and Movellan et al. 2014 with specified modifications as described below.
Seeds were placed on Whatman no. 1 filter paper (Whatman, Middlesex, U.K.) in Petri dishes (10 seeds per plate) with 2.0 ml of aqueous solution of a test material in concentration ranged from 0 (control) to 1 mmol/l were placed in a tray tilted at 45°. The trays were kept in dark for 48 hours and then transferred to the growth chamber with 6/18 dark/light cycle for 4 days. Each experiment was performed at least with two repeats.
The development of plants' radicle and shoots were visually assessed 6 days after the beginning of the test to determine Fully Effective Concentration (FEC) of a test material. In the context of the invention, FED is defined as the lowest concentration level of a test material that mostly preventing seeds germination.

[4] = system: Romaine lettuce (Lactuca sativa L.) plants; assay: Comparison of NAA and DNAA: growth inhibition of potted Romaine lettuce plants; details: two weeks after treatment
Protocol: The tests were performed on Romaine lettuce (Lactuca sativa L.) plants at the stage 2 to 3 leaves. The plants were grown in mini-pots packed with soil, dimensions 2×2×5 cm, one plant per mini-pot. Test compounds were dissolved in 0.1% aqueous solution water solution of Silwet adjuvant. The test material where applied in rate 0 (Control), 0.01, 0.05, and 0.5 mg/pot. The test compounds were applied on soil or foliar with airbrush (0.1 ml per pot). Each concentration was tested on 20 plants. Two weeks after the treatment the herbicidal effects of the respective test material were visually evaluated (aboveground part and roots. Then the aboveground part of the plants was neatly cut and weighed (wet weight) to assess the growth inhibition caused by the test compound. The growth inhibition (GI) was calculated as following: […]
Where Mt and Mc are median wet weight of treated and control plants, respectively.

[5] = foliar application, 0.05 mg/pot
[6] = foliar application, 0.50 mg/pot

| Compound | Score (activity score of Minimal Effective Concentration, MEC) [1] | Score (test material causing more than 85% of Growth Inhibition or irreversible plant damage) ([2]; soil application) | Average Herbicidal Effect, Lentils (Lentils; pre-emergence) | Average Herbicidal Effect, Amaranth (Amaranth; post-emergence) | Average Herbicidal Effect, Amaranth (Amaranth; pre-emergence) | Average Herbicidal Effect, Silybum (Silybum; post-emergence) | Average Herbicidal Effect, Silybum (Silybum; pre-emergence) | Average Herbicidal Effect, Chenopodium (Chenopodium; post-emergence) | Average Herbicidal Effect, Chenopodium (Chenopodium; pre-emergence) | Average Herbicidal Effect, Sinapis (Sinapis; post-emergence) | FEC (Fully Effective Concentration) [3] | Score (test material causing more than 85% of Growth Inhibition or irreversible plant damage) ([2]; foliar application) | Average Herbicidal Effect, Lentils (Lentils; post-emergence) | Average Herbicidal Effect, Sinapis (Sinapis; pre-emergence) | Herbicidal effect, growth application (%) [4, 5] | Herbicidal effect, growth application (%) [4, 6] | Herbicidal effect, growth application (%) ([4]; soil application, 0.01 mg/pot) | Herbicidal effect, growth application (%) ([4]; soil application, 0.05 mg/pot) | Herbicidal effect, growth application (%) ([4]; soil application, 0.50 mg/pot) |
| --- | --- | --- | --- | --- | --- | --- | --- | --- | --- | --- | --- | --- | --- | --- | --- | --- | --- | --- | --- |
| 2,2-difluoro-2-[6-(trifluoromethyl)pyridin-2-yl]acetic acid [compound 6651] | Strong (0.01 mM) | moderate (0.5) | 0.0 | 0.5 | 5.0 | 2.0 | 4.0 | 0.5 | 1.5 | 2.0 |  |  |  |  |  |  |  |  |  |
| 2-(2,5-dichloro-1,3-thiazol-4-yl)acetic acid [compound 5637] | Strong (0.01 mM) | strong (0.01 to 0.05) | 0.0 | 3.3 | 1.5 | 1.0 | 0.5 | 2.2 | 1.5 | 0.0 | 0.050 mM | moderate (0.5) | 1.7 | 3.5 |  |  |  |  |  |
| 2-(2-chlorothiophen-3-yl)-2,2-difluoroacetic acid [compound 5623] | Strong (0.01 mM) | strong (0.01 to 0.05) |  |  |  |  |  |  |  |  | 1.000 mM | strong (0.01 to 0.05) |  |  | 91% | 97% | 34% | 79% | 98% |
| NC(Cc1ccsc1Cl)C(=O)O (stereo not shown) [compound 516] |  |  |  |  |  |  |  |  |  |  |  |  |  |  | 0% | 0% | 0% | 0% | 38% |
| NC(Cc1cc(Cl)sc1Cl)C(=O)O (stereo not shown) [compound 517] |  |  |  |  |  |  |  |  |  |  |  |  |  |  | 0% | 29% | 0% | 25% | 75% |
| NC(Cc1nc(Cl)sc1Cl)C(=O)O (stereo not shown) [compound 527] |  |  |  |  |  |  |  |  |  |  |  |  |  |  | 0% | 44% | 0% | 11% | 90% |
| NC(Cc1ccnc(Br)c1)C(=O)O (stereo not shown) [compound 632] |  |  |  |  |  |  |  |  |  |  |  |  |  |  | 0% | 8% | 0% | 13% | 21% |
| CCOC(=O)C(F)(F)c1cc(Cl)sc1Cl [compound 5643, ethyl(2,5-dichlorothiophen-3-yl)(difluoro)acetate] | Moderate (0.1 mM) |  | 5.0 | 4.0 | 0.5 | 3.0 | 0.0 | 5.0 | 4.0 | 5.0 |  |  | 4.0 | 5.0 |  |  |  |  |  |
| CCOC(=O)Cc1cc(Cl)sc1Cl [compound 5668, ethyl (2,5-dichlorothiophen-3-yl)acetate] |  | strong (0.01 to 0.05) | 4.0 |  | 3.0 |  | 5.0 |  | 2.0 |  |  |  |  | 5.0 |  |  |  |  |  |
| O=C(O)C(F)(F)c1csc(C(F)(F)F)n1 [compound 5679, 2,2-difluoro-2-[2-(trifluoromethyl)-1,3-thiazol-4-yl]acetic acid] | very strong | strong (0.01 to 0.05) | 0.0 | 1.0 | 4.5 | 2.0 | 2.0 | 1.0 | 1.5 | 1.0 |  | strong (0.01 to 0.05) | 0.5 | 2.0 |  |  |  |  |  |
| CCOC(=O)Cc1cccc(Br)n1 [compound 6635, ethyl 2-(6-bromopyridin-2-yl)acetate] | Moderate (0.1 mM) | moderate (0.5) | 0.0 | 4.0 | 4.0 | 2.5 | 3.0 | 3.0 | 0.5 | 2.0 |  |  | 0.0 | 3.0 |  |  |  |  |  |
| OCC(F)(F)c1cccc(Br)n1 [compound 6643, 2-(6-bromopyridin-2-yl)-2,2-difluoroethan-1-ol] | Moderate (0.1 mM) | moderate (0.5) | 0.0 | 1.0 | 0.0 | 2.0 | 2.5 | 4.0 | 3.0 | 4.0 |  |  | 0.0 | 4.0 |  |  |  |  |  |
| ethyl 2-(6-bromopyridin-2-yl)-2,2-difluoroacetate [compound 6640] | Strong (0.01 mM) | moderate (0.5) |  | 4.0 |  | 3.0 |  | 1.0 |  | 3.0 |  |  | 2.0 |  |  |  |  |  |  |
| ethyl(2,5-dichloro-1,3-thiazol-4-yl)(difluoro)acetate [compound 5655] | Strong (0.01 mM) | strong (0.01 to 0.05) |  |  |  |  |  |  |  |  | 1.000 mM | strong (0.01 to 0.05) |  |  |  |  |  |  |  |
